Results as given in patent US10280190B2, “Nicotinic acid riboside or nicotinamide riboside compositions, reduced derivatives thereof, and the use thereof to enhance skin permeation in treating skin conditions” (ChromaDex Inc., priority 2015, dated 2019).

Tested on: A431 human epidermoid cells
Assay: Oxidative damage protection assay (Example 3), compound with 1 mM H2O2, alamar blue readout
Type: cell-based
Protocol: The cells were trypsinized with 0.25% trypsin EDTA solution for 2-3 minutes until the cells were dislodged. The cells were sub-cultured in a ratio of 1:3 for further growth and scale-up for the assay. The cells were trypsinized and counted to a density of 5,000 or 15,000 cells and seeded in 100 μL media per well, in 96-well clear bottom black plates. The outer wells at the periphery of the plates were left unneeded and were instead filled with media to reduce the edge effect during incubation. […] Each concentration was tested in 6 replicates.
Detection method used: Cell Titer blue (Promega, Cat# G8080).

CC(=O)OC[C@H]1O[C@@H](N2C=CCC(C(N)=O)=C2)[C@H](OC(C)=O)[C@@H]1OC(C)=O [NRH triacetate (2), 1-(2′,3′,5′-triacetyl-beta-D-ribofuranosyl)-1,4-dihydronicotinamide]
mitigating oxidative damage to human skin cells (Trial A, FIG. 1, 1 mM H2O2 for 20 hours, all doses (0.1, 0.3, 1 mM)): capable of mitigating oxidative damage | cytoprotection compared to positive controls (Trial A, FIG. 1, 1 mM H2O2 for 20 hours, dose-dependent, highest over 0.1-1 mM): up to 88% | cytoprotection compared to positive controls (Trial B, FIG. 2, 1 mM H2O2, compound at 1 mM): 94% | protection against oxidative damage in skin cells (composite of Trials A and B, FIG. 3): can protect against oxidative damage
